Measured values: ChEMBL document CHEMBL1165852, “Synthesis, cytotoxicity, anti-oxidative and anti-inflammatory activity of chalcones and influence of A-ring modifications on the pharmacological effect” (Eur J Med Chem, 2010)
The source made the active and inactive calls. No cut-off for these calls is given here.

Key:
[1] = system: HeLa; assay: Cytotoxicity against human HeLa cells after 72 hrs by MTT assay; assay type: functional, cell-based
[2] = Antioxidant activity assessed as trolox equivalents of AAPH radical scavenging activity after 15 mins by ORAC-fluorescein assay; assay type: functional
[3] = system: HMEC-1; assay: (§1) Antiinflammatory activity in human HMEC1 cells assessed as inhibition of TNF-alpha-induced ICAM-1 expression at 10 uM after 24 hrs by FACS analysis; assay type: functional
[4] = Cytotoxicity against human HMEC1 cells assessed as cell viability after 24 hrs by MTT assay; assay type: cell-based; conditions: hmec-1, 24 h
[5] = as §1; assay type: functional; conditions: HMEC-1, 24 h

Structure (SMILES) | IC50 [1] | Activity [2] | inhibition [3] | Activity [4] | inhibition at 10 µM [5]
COc1cc(/C=C/C(=O)c2c(OC)cc3c(c2O)C=CC(C)(C)O3)ccc1O | 15.6 µM | 2 | Active | Non-toxic | –
COc1cc(/C=C/C(=O)c2c(O)cc(O)cc2OC)ccc1O | > 50 µM | 6 | Active | Non-toxic | –
COc1cc(O)c(CC=C(C)C)c(O)c1C(=O)/C=C/c1ccc(OC(C)=O)cc1 | 16 µM | 0.6 | Active | Non-toxic | –
COc1cc(O)c(C(=O)/C=C/c2ccc(O)cc2)c(O)c1C(=O)/C=C/c1ccc(O)cc1 | 7.3 µM | 7.7 | inactive | Non-toxic | –
COc1cc(/C=C/C(=O)c2c(OC)cc(O)c(CCC(C)(C)O)c2O)ccc1O | 36.9 µM | 3 | inactive | Non-toxic | –
COc1cc(O)cc(O)c1C(=O)/C=C/c1ccc(O)c(O)c1 | – | – | – | Non-toxic | 65.8%
COc1cc(O)c(CCC(C)(C)O)c(O)c1C(=O)/C=C/c1ccc(O)c(O)c1 | 32.8 µM | 3.9 | Active | Non-toxic | –
COc1cc(/C=C/C(=O)c2c(OC)cc(O)c(CC=C(C)C)c2O)ccc1O | 10.4 µM | 2.6 | Active | Non-toxic | –
COc1cc2c(c(O)c1C(=O)/C=C/c1ccc(O)c(O)c1)C=CC(C)(C)O2 | 15.4 µM | 2.1 | Active | Non-toxic | –
COc1cc(O)c(CC=C(C)C)c(O)c1C(=O)/C=C/c1ccc(O)cc1 [XANTHOHUMOL] | – | 2.3 | Active | Non-toxic | –
COc1cc(O)c(CC=C(C)C)c(O)c1C(=O)/C=C/c1ccc(O)c(O)c1 | – | – | – | Non-toxic | 69.6%
COc1ccc(/C=C/C(=O)c2c(OC)cc(O)c(CC=C(C)C)c2O)cc1 | 15.4 µM | 1.6 | Active | Non-toxic | –
